Measurements taken from paper PMC6017357, “In Vitro Inhibitory Effects of Synthetic Cannabinoid EAM-2201 on Cytochrome P450 and UDP-Glucuronosyltransferase Enzyme Activities in Human Liver Microsomes” (Molecules : A Journal of Synthetic Chemistry and Natural …, 2018).

Columns and labels:
[1] = human liver microsomes; cited from earlier work
[2] = biological target: CYP2C9 (Homo sapiens, UniProt P11712); assay: CYP2C9-catalyzed diclofenac 4′-hydroxylation in human liver microsomes (IC50 and time-dependent inhibition); format: in vitro ADME; design: from tissue; host or cells: ultrapooled human liver microsomes
Experimental: The inhibitory potential (IC50 values) of EAM-2201 on CYP1A2, CYP2A6, CYP2C8, CYP2C9, CYP2C19, CYP2D6 and CYP3A4 were evaluated using ultrapooled human liver microsomes and a cocktail of seven CYP substrates followed by LC-tandem mass spectrometry (LC-MS/MS) as previously described. Each incubation mixture was prepared in a total volume of 100 µL as follows: pooled human liver microsomes (5.2 pmol CYP), 1.0 mM NADPH, 10 mM magnesium chloride, 50 mM potassium phosphate buffer (pH 7.4), various concentrations of EAM-2201 in DMSO (final concentrations of 0.1–50 µM, 0.5% DMSO) and a cocktail of seven CYP probe substrates in 50% acetonitrile (0.5% acetonitrile), including 50 µM phenacetin, 2.5 µM coumarin, 2.0 µM amodiaquine, 10 µM diclofenac, 100 µM [S]-mephenytoin, 5 µM bufuralol and 2.5 µM midazolam in 50% acetonitrile. After a 3-min preincubation at 37 °C, the reactions were initiated by adding NADPH and incubation proceeded for 15 min at 37 °C in a shaking water bath. The reactions were stopped by adding 100 µL of ice-cold methanol containing internal standards (^13C2,^15N-acetaminophen for acetaminophen and N-desethylamodiaquine; d9-1′-hydroxybufuralol for 4′-hydroxydiclofenac, 7-hydroxycoumarin, 4′-hydroxymephenytoin, 1′-hydroxybufuralol and 1′-hydroxy-midazolam). The incubation mixtures were centrifuged at 13,000× g for 4 min at 4 °C and 50 µL of each supernatant was diluted in 50 µL of water. Aliquots (5 µL) of the diluted supernatants were analyzed using LC-MS/MS. All assays were performed in triplicate and the mean values were used in calculations. […] Each reaction was initiated by adding the seven-CYP probe substrate cocktail described above.
The time-dependent inhibitory effects of EAM-2201 on CYP2C8, CYP2C9, CYP2C19 and CYP3A4 activities in ultrapooled human liver microsomes were evaluated using time- and concentration-dependent inhibition assays. Ultrapooled human liver microsomes (26.0 pmol CYP) were pre-incubated with various concentrations of EAM-2201 in DMSO (0.5% DMSO) in 50 mM potassium phosphate buffer (pH 7.4) in the presence of NADPH for predetermined time periods: 5–15 min for CYP2C8 activity, 5–20 min for CYP2C9 activity and 15–40 min for CYP2C19 and CYP3A4 activities. […] Aliquots (5 µL) of the diluted supernatants were analyzed using LC-MS/MS.
The metabolites formed from CYP substrates were simultaneously quantified using our previously described LC-MS/MS method. […]

Sequence of CYP2C9 (P11712 whole entry): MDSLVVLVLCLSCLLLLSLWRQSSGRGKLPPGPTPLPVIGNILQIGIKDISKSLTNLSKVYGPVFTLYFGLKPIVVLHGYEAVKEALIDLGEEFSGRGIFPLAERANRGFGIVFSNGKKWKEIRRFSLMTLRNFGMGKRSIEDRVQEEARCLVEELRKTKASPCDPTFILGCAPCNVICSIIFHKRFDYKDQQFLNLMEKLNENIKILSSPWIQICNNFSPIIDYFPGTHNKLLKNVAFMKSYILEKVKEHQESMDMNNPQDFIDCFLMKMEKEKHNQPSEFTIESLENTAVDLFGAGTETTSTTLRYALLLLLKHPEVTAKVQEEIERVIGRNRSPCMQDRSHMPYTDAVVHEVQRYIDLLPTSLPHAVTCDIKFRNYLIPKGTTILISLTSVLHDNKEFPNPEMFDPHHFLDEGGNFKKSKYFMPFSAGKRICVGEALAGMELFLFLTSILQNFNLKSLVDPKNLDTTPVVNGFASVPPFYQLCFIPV

CCc1ccc(C(=O)c2cn(CCCCCF)c3ccccc23)c2ccccc12 [EAM-2201, (4-ethyl-1-naphthalenyl)[1-(5-fluoropentyl)-1H-indol-3-yl]-methanone]
number of metabolites [1]: 37 metabolites | IC50 [2]: 6.7 µM | inactivation efficiency (kinact/Ki), CYP2C9 ([2]; human liver microsomes): 15.4 mL/µmol/min | kinact ([2]; human, ultrapooled human liver microsomes, pH 7.4, probe diclofenac (10 µM), 4′-hydroxylation, read-out: kinact, time-dependent inhibition of CYP2C9 diclofenac 4′-hydroxylase (converted)): 0.00077 s⁻¹ | inhibition of CYP2C9-catalyzed diclofenac 4′-hydroxylation ([2]; up to 50 µM, without 30-min preincubation, human liver microsomes): negligibly inhibited
